Results taken from patent US4183920A, “4-N-Acyl, 2'-N-acyl and 4,2'-N,N'-diacylfortimicin E derivatives” (Abbott Laboratories, priority 1977, dated 1980).
Structures can show the parent of a compound that is named as a salt. Where two headings read alike, the source gives them in different places.

Assays:
Assay in all cases: In vitro antibiotic activity, 2-fold agar dilution method
Type in all cases: cell-based
[1] = system: Bacillus subtilus U. Ill. 10707
Method: (§1) The in vitro antibiotic activity is determined by a 2-fold agar dilution method using 10 ml. per petri plate of Mueller-Hinton agar. The agar is inoculated with one loopful (0.001 ml. loop) of a 1:10 dilution of a 24 hour broth culture of the indicated test organism and incubated at 37° C. for 24 hours. Minimum inhibitory concentrations (MIC) are expressed as mcg/ml.

E. coli Juhl = conditions: Escherichia coli
Method: as §1

E. coli R3 = conditions: Escherichia coli
Method: as §1

Kleb. pneumoniae KY 4262 = conditions: Klebsiella pneumoniae
Method: as §1

Proteus vulgaris JJ = system: Proteus vulgaris JJ
Method: as §1

Pseudo aeruginosa = system: Pseudo aeruginosa
Method: as §1

Sal. typhimurium Ed #9 = conditions: Salmonella enterica
Method: as §1

Shigella sonnei 9290 = conditions: Mueller-Hinton agar, 37° C., 24 hours
Method: as §1

Staph aureus Smith = conditions: Staphylococcus aureus
Method: as §1

Strep. faecalis 10541 = system: Strep. faecalis 10541
Method: as §1

[2] = Bacillus subtilus U. Ill. 10707, Mueller-Hinton agar, 37° C., 24 hours, read-out: MIC
[3] = E. coli Juhl, Mueller-Hinton agar, 37° C., 24 hours, read-out: MIC
[4] = E. coli R3, Mueller-Hinton agar, 37° C., 24 hours, read-out: MIC
[5] = KY4262, Kleb. pneumoniae KY 4262, Mueller-Hinton agar, 37° C., 24 hours, read-out: MIC
[6] = Proteus vulgaris JJ, Mueller-Hinton agar, 37° C., 24 hours, read-out: MIC
[7] = Pseudo aeruginosa, Mueller-Hinton agar, 37° C., 24 hours, read-out: MIC
[8] = Sal. typhimurium Ed #9, Mueller-Hinton agar, 37° C., 24 hours, read-out: MIC
[9] = Staph aureus Smith, Mueller-Hinton agar, 37° C., 24 hours, read-out: MIC
[10] = Enterococcus faecalis, Strep. faecalis 10541, Mueller-Hinton agar, 37° C., 24 hours, read-out: MIC

Q: Which results are given for `COC1C(O)C(N)C(OC2OC(C(C)N)CCC2N)C(O)C1N(C)C(=O)CN` (stereo not shown) [4-N-glycylfortimicin E tetrahydrochloride salt]?
A: MIC ([1]; Bacillus, U.ILL.10707, 24 h): 12.5 µg/mL; MIC (E. coli Juhl; 24 h): 6.25 µg/mL; MIC (E. coli R3; R3, 24 h): > 100 µg/mL; MIC (Kleb. pneumoniae KY 4262; KY4262, 24 h): 25 µg/mL; MIC (Proteus vulgaris JJ; Proteus vulgaris, 24 h): > 100 µg/mL; MIC (Pseudo aeruginosa; 24 h): > 100 µg/mL; MIC (Sal. typhimurium Ed #9; TYPHIMURIUM, 24 h): 25 µg/mL; MIC (Shigella sonnei 9290): 25 µg/mL; MIC (Staph aureus Smith; 24 h): 6.25 µg/mL; MIC (Strep. faecalis 10541; Enterococcus faecalis, 10541, 24 h): > 100 µg/mL

Q: `COC1C(O)C(N)C(OC2OC(C(C)N)CCC2N)C(O)C1N(C)C(=O)[C@@H](O)CCN` (stereo partly drawn) [4-N-L-(2-hydroxy-4-amino)butyrylfortimicin E tetrahydrochloride salt] was tested. Which MIC [1, 2] did it give?
A: Its MIC is 12.5 µg/mL.

Q: And the MIC (E. coli Juhl; [3])?
A: The MIC was 50 µg/mL.

Q: And the MIC (E. coli R3; [4])?
A: The MIC was > 100 µg/mL.

Q: And the MIC (Kleb. pneumoniae KY 4262; [5])?
A: Its MIC is 50 µg/mL.

Q: What about the MIC (Proteus vulgaris JJ; [6]) of the same compound?
A: Its MIC is > 100 µg/mL.

Q: What about the MIC (Pseudo aeruginosa; [7]) of the same compound?
A: Its MIC is > 100 µg/mL.

Q: What about the MIC (Sal. typhimurium Ed #9; [8]) of the same compound?
A: The MIC was 100 µg/mL.

Q: And the MIC (Shigella sonnei 9290)?
A: Its MIC is > 100 µg/mL.

Q: What about the MIC (Staph aureus Smith; [9]) of the same compound?
A: The MIC was 25 µg/mL.

Q: What about the MIC (Strep. faecalis 10541; [10]) of the same compound?
A: The MIC was > 100 µg/mL.

Q: Which results are given for `CNCC(=O)N(C)C1C(O)C(OC2OC(C(C)N)CCC2N)C(N)C(O)C1OC` (stereo not shown) [4-N-sarcosylfortimicin E tetrahydrochloride salt]?
A: MIC [1, 2]: 6.25 µg/mL; MIC (E. coli Juhl; [3]): 50 µg/mL; MIC (E. coli R3; [4]): > 100 µg/mL; MIC (Kleb. pneumoniae KY 4262; [5]): 100 µg/mL; MIC (Proteus vulgaris JJ; [6]): > 100 µg/mL; MIC (Pseudo aeruginosa; [7]): > 100 µg/mL; MIC (Sal. typhimurium Ed #9; [8]): 50 µg/mL; MIC (Shigella sonnei 9290): 100 µg/mL; MIC (Staph aureus Smith; [9]): 25 µg/mL; MIC (Strep. faecalis 10541; [10]): > 100 µg/mL

Q: Which results are given for `COC1C(O)C(N)C(OC2OC(C(C)N)CCC2N)C(O)C1N(C)C(=O)CCN` (stereo not drawn) [4-N-β-alanylfortimicin E tetrahydrochloride salt]?
A: MIC [1, 2]: 12.5 µg/mL; MIC (E. coli Juhl; [3]): 25 µg/mL; MIC (E. coli R3; [4]): > 100 µg/mL; MIC (Kleb. pneumoniae KY 4262; [5]): 25 µg/mL; MIC (Proteus vulgaris JJ; [6]): > 100 µg/mL; MIC (Pseudo aeruginosa; [7]): > 100 µg/mL; MIC (Sal. typhimurium Ed #9; [8]): 25 µg/mL; MIC (Shigella sonnei 9290): > 100 µg/mL; MIC (Staph aureus Smith; [9]): 12.5 µg/mL; MIC (Strep. faecalis 10541; [10]): > 100 µg/mL
